Experimental data taken from US20070110734A9, “Methods and compositions using cellular asialodeterminants and glycoconjugates for targeting cells to tissues and organs” (Department of Veterans Affairs, Rehabilitation R&D Service, priority 2002, published 2007).
“Also recorded” adds a separate entry of the source.

How the values were obtained:
[1] = system: human CD34+ (hCD34+) peripheral blood stem cells; experiment: In vivo trafficking of 111In-labeled human CD34+ stem cells (HSC) after glycoprotein infusion, gamma camera imaging; parameters: species or system NOD-SCID mice; settings: for % Infused Cells in Liver/Spleen: 5.75×10^6 HSC preceded by 5.5 mg orosomucoid i.v.; for organ localization of infused hematopoietic (CD34+) stem cells, in words: cells preceded by infusion of the protein, jugular vein, immunodeficient mice
Protocol: Intravenous cannulas were placed into the external jugular vein of NOD-SCID mice under anesthesia (Institutional Animal Care and Use Committee protocol #AM87046-07) to enable the efficient delivery of ^111In-labeled stem cells i.v. Tylenol elixir was administered by mouth after recovery from anesthesia. Briefly radiolabeled CD34+ cells were taken up in 100-250 ul of 5% human plasma albumin in saline and injected into the cannula and then flushed with 50 ul of the albumin-saline. The mice were imaged by nuclear medicine.
Mice: NOD-SCID, female mice (Nonobese diabetic/LtSz-scid/scid) were obtained from the Jackson Laboratory, Bar Harbor, Me. at 1-2 months of age. These animals were maintained in microisolator cages in a special isolator room. The air was HEPA filtered, and the animals were changed in a laminar flow hood within the facility. All food, bedding, and water was sterilized. […] See, e.g. Hogan, et al., Biology of Blood & Marrow Transplantation 3:236-246 (1997); Noort, et al., Bone Marrow Transplantation 22 Suppl 1:S58-60 (1998).
(§1) ^111Indium Oxine Labeling Procedure: ^111In-oxine labeling of adult human CD34+ or mesenchymal stem cells (hMSCs) was performed using a modification of the Amersham Healthcare Procedure for labeling autologous leukocytes.
(§2) Imaging procedures: Nuclear Medicine. NOD-SCID mice were anesthetized using rodent anesthesia cocktail. Once anesthetized, the mice were placed on a foam hemi-cylindrical mouse positioning device (MPD) and covered with a tube sock. The MPD allows better visual separation of the lungs and liver as compared to placing the mouse on a flat surface. The foam on which the mouse was placed, and the tube sock covering maintained a comfortable temperature permitting longer imaging without additional anesthesia. The MPD was placed on a narrow table between the dual heads of a Siemens E.Cam Gamma Camera and imaged statically or dynamically in 2-D or SPECT. ^57Co-Spot Marker is used to mark anatomic positions (nose, tail, cannula, etc.). The data was analyzed using a Siemens ICON system for regions of interest or percent of injected dose (e.g. liver, spleen, heart).
(§3) Gamma camera imaging using a Siemens E. Cam dual head gamma camera monitored the in vivo trafficking patterns of all human stem cells described in the following examples. Mice were placed on a Mouse Positioning Device (MPD) and placed between the detectors on the imaging platform.
5.75×10^6 111In-labeled human CD34+ (hCD34+) peripheral blood stem cells were administered intravenously (i.v.) via an external jugular vein cannula to 2 month old, NOD-SCID, female mice (Non-obese diabetic/LtSz-scid/scid) obtained from the Jackson Laboratory, Bar Harbor, Me. The radiolabeled CD34+ stem cells were administered after pretreatment of the mouse with 3.3 mg of asialoorosomucoid (ASO) i.v. The in vivo trafficking patterns were followed by gamma camera imaging using a Siemens E.Cam dual head gamma camera from immediately after injection up to 36 hr postinfusion. Human CD34+ were isolated from apheresis stem cell collection products derived from deceased cancer patients. They were purified to 95-99% purity using antibody conjugated to CD34 conjugated to magnetics beads (MACS) separation columns; Miltenyi Biotec, Auburn, Calif. and cryopreserved.
5.75×10^6 111In-labeled human CD34+ (hCD34+) peripheral blood stem cells were administered intravenously (i.v.) via an external jugular vein cannula to 2 month old, NOD-SCID, female mice (Non-obese diabetic/LtSz-scid/scid) obtained from the Jackson Laboratory, Bar Harbor, Me. The radiolabeled CD34+ stem cells were administered after pretreatment of the mouse with 5.5 mg of orosomucoid (O) i.v.
The preparation and procedures set forth in Example I were repeated. […]

[2] = system: human mesenchymal stem cells (MSC); experiment: In vivo trafficking of 111In-labeled human mesenchymal stem cells (MSC) after glycoprotein infusion, gamma camera imaging; parameters: species or system NOD-SCID mice; settings: for % Infused Cells in Heart: 0.56×10^6 MSC preceded by 11 mg orosomucoid i.v.
Protocol: Human mesenchymal stem cells (hMSCs; PT-2501) obtained through a FDA monitored paid bone marrow donor program were purchased from Poietics Technologies, BioWhittaker (Walkerville, Md.). The cells were thawed according to manufacturer recommendations, resuspended, and radiolabeled in Mesenchymal Stem Cell Basal Medium (MSCBM).
as §1, §2, §3
MSC were obtained from BioWhittaker, (Poietics Division, cryopreserved PT-2501 >750,000 cells per ampoule) and labeled with ^111In as in previous examples, except that the MSC were labeled, washed, and injected in Basal Stem Cell Medium (Poietics) containing 5% human serum albumin (HSA). 0.56×10^6 111In labeled, human mesenchymal stem cells (MSC) were administered via an implanted Da Vinci Microport Vascular System cannula in the external jugular vein of a two-month old, female NOD-SCID mouse in 0.21 ml of basal stem cell medium containing 5% human serum albumin (HSA). Immediately prior to administration of MSC, 11.0 mg of orosomucoid was administered i.v. in 0.2 ml.
0.56×10^6 “In-labeled, MSC were administered i.v. in 0.21 ml of basal stem cell medium containing 5% human serum albumin (HSA). Prior to administration of MSC, 0.1 ml containing 4.3 mg of ASO, followed by 0.1 ml containing 5.5 mg orosomucoid were administered i.v. The ASO, orosomucoid and MSC were administered via an implanted Da Vinci Microport Vascular system cannula in the external jugular vein of a two-month old, female NOD-SCID mouse.

[3] = system: human CD34+ (hCD34+) peripheral blood stem cells; experiment: In vivo trafficking of 111In-labeled human CD34+ stem cells (HSC) after glycoprotein infusion, gamma camera imaging; parameters: species or system NOD-SCID mice; settings: 0.5×10^6 HSC preceded by 11 mg orosomucoid i.v.
HEPG2 (ASGPR+) [4] = experiment: Adherence of NK/LAK activity to HEPG2 monolayers at 4° C; assay type: cell-based, human; settings: monolayer pretreated with 200 μg/ml protein, 2 hours at 4° C, assayed on Raji
Protocol: (§4) Control cells (no IL-2 treatment) or LAK cells (IL-2-treated human peripheral blood lymphocytes cultured 10U IL-2/ml for 3 days) were adhered to a monolayer of HEP G2 cells for 2 hours at 4° C. The monolayer was pretreated either with asialofetuin (ASF, 200 μg/ml) in media or with fetuin (F, control, 200 μg/ml)) in media. After the Control or LAK cells had been incubated on the monolayer, these cells were then decanted, washed, and tested for cytotoxic capacity in a ^51Cr-release assay against the NK-resistant target, Raji.

HEPG2 (ASGPR+) [5] = experiment: Adherence of NK/LAK activity to HEPG2 monolayers at 23° C; assay type: cell-based, human; settings: 23° C, 200 μg/ml
Protocol: (§5) This experiment is the same as above, except that the adherence to monolayers was performed at 23° C. and not 4° C., for 2 hours. Two monolayers were used: HEPG2, an ASGPR+ cell line, and CAKI-2 (human renal cell carcinoma), an ASGPR− cell line. The effector cell populations that were used were: an untreated 3-day old LAK preparation (LAK) and the same population treated with Vibrio cholera neuraminidase (LAK/NS) (30 mU/1×10^7 cells/200 μl). The neuraminidase-treated population was the asialopositive lymphocyte control. All cell populations regardless of treatment were greater than 90% viable at the time of assay. Each type of effector population was incubated with media alone, 200 μg/ml ASF or F, as controls. All effectors were assayed on RAJI (LAK-sensitive target; NK-insensitive target) or K562 (NK/LAK-sensitive target); the E:T ratios and the graphic presentation are the same above.
(§6) Five-day LAK preparations (20 U/ml; 1 Dupont unit=44.5 BRMP units) grown in AIM-V (Gibco) were treated (according to the protocols in B. 1.2.3 & 1.2.4) with 3 OmU Vibric Cholera neuramindase, 0.48 mU 2,3-or 10 mu 2,6-silalyltransferase per 107 cells. Some of the effectors were incubated in media, 10% PBS in RPMJ 1640 at 23° C. for 2 hours. 2×107 effectors from the untreated LALK, neuramithdase-treated LAK, LAK treated with 2,3 or 2,6 were suspended in 15 ml media and placed onto either HEPG2 (ASGPR+) or CAKI-2 (ASGPR−) monolayers at 23° C. for 2 hours. The flasks were rocked every 15 minutes. The nonadherent cells from these monolayers were decanted and assayed against K562 and RAJI, in addition to the unadhered controls. The E:T ratios used were 40, 20, 10, and 5 to 1.

CAKI-2 (ASGPR−) = experiment: Adherence of NK/LAK activity to CAKI-2 monolayers at 23° C; assay type: cell-based, human; settings: 23° C; 200 μg/ml
Protocol: as §5, §6

Caki-2 Targets [6] = experiment: 51Cr-release assay of LAK effectors against CAKI-2 with agent added; assay type: cell-based, human; settings: for % 51Chromium Release from Caki-2 Targets: agent 250 μg per well, 5-day LAK, 4-hour incubation
Description: A working hypothesis is that LAK/NK cells bind to HEPG2 via at least two receptors or recognition structures: 1) the ASGPR, which binds an asialodeterminant on the LAK/NK population and 2) the “LAK” or “NK” recognition structure for a target epitope. The first should be inhibitable by ASF; the second should not be. Binding to CAKI-2 (ASGPR−) should not be inhibited by ASF and is due to a LAK or NK recognition structure binding to the target epitope. This can be further supported by data derived from experiments (see below) in which 250 μg/well of ASF or F were added to the ^51Cr-release assay of LAK effectors against the labeled target CAKI-2.
(% SPECIFIC RELEASE was determined from quadruplicates whose raw counts per minute differed by less than 10 percent; the assay was a standard 4-hour incubation.)

[7] = system: RAJI (LAK-sensitive target; NK-insensitive target); experiment: Cytotoxic capacity of LAK effectors in 51Cr-release assay on RAJI; assay type: cell-based, human
Protocol: as §4, §5, §6

[8] = system: K562 (NK/LAK-sensitive target); experiment: Cytotoxic capacity of IL-2 activated NK effectors in 51Cr-release assay on K562; assay type: cell-based, human; settings: 200 μg/ml; 23° C
Protocol: as §5, §6

Caki-2 Targets [9] = experiment: 51Cr-release assay of LAK effectors against CAKI-2 with agent added; assay type: cell-based, human; settings: concentration of 1 mg/ml

alpha-(1)-acid glycoprotein [Orosomucoid]
111In-labeled cells in the region of the heart, in words ([1]; 5.75×10^6 HSC after 5.5 mg orosomucoid i.v., up to 36 hours): No ^111In-labeled cells were found in the region of the heart
% Infused Cells in Liver/Spleen ([1]; 1.5 hr): 74 ± 4% at 1.5 hr
% Infused Cells in Liver/Spleen ([1]; 1.5 hr, listed as orosomucoid): 74±4%
% Infused Cells in Liver/Spleen ([1]; 24 hr): 63 ± 1% at 24 hr
% Infused Cells in Liver/Spleen ([1]; 24 hr, listed as O): 63.6%
% Infused Cells in Liver/Spleen ([1]; 24 hr, listed as orosomucoid): 63±1%
% Infused Cells in Liver/Spleen ([1]; immediately after infusion (0 hr)): 74 ± 3% at 0 hr
% Infused Cells in Liver/Spleen ([1]; immediately after infusion (0 hr), listed as O): 76.3%
% Infused Cells in Liver/Spleen ([1]; immediately after infusion (0 hr), listed as orosomucoid): 74±3%
organ localization of infused hematopoietic (CD34+) stem cells, in words ([1]; listed as O): migrated immediately to the liver/spleen area
organ localization of infused hematopoietic (CD34+) stem cells, in words ([1]; listed as orosomucoid (O)): localize in the liver
% Infused Cells in Heart ([2]; 0 hr): 68 ± 7% at 0 hr
% Infused Cells in Heart ([2]; 0 hr, listed as orosomucoid): 68±7%
% Infused Cells in Heart ([2]; 1 hr): 61 ± 3% at 1 hr
% Infused Cells in Heart ([2]; 1 hr, listed as orosomucoid): 61±3%
organ localization of infused mesenchymal stem cells, in words ([2]; cells preceded by infusion of the protein, jugular vein, immunodeficient mice): predominantly localize in the heart
% of infused cells in the liver region ([3]; 1 hr): 40±3%
% of infused cells in the liver and spleen ([3]; immediately after infusion): 43±2%

asialofetuin [ASF]
adherence of LAK activity to HEPG2 monolayer, in words (HEPG2 (ASGPR+) [4]): virtually all LAK activity can be inhibited from adhering
adherence of LAK activity to HEPG2 monolayer, in words (HEPG2 (ASGPR+) [4]; listed as asialofetuin): not removed; also recorded: does not adhere
inhibition of adherence to HEPG2 of LAK activity (assayed on RAJI) (HEPG2 (ASGPR+) [5]): could not be inhibited; also recorded: cannot be inhibited
inhibition of adherence of LAK activity of the neuraminidase-treated population to HEPG2 (HEPG2 (ASGPR+) [5]; assayed on RAJI): only marginally be inhibited
inhibition of adherence to HEPG2 of IL-2 activated NK (assayed on K562) (HEPG2 (ASGPR+) [5]; with or without neuraminidase treatment): partially inhibited
inhibition of adherence to CAKI-2 of IL-2 activated NK or LAK activity (CAKI-2 (ASGPR−)): could not be inhibited; also recorded: cannot be blocked
% 51Chromium Release from Caki-2 Targets (Caki-2 Targets [6]; E:T 5:1): 13%
% 51Chromium Release from Caki-2 Targets (Caki-2 Targets [6]; E:T 10:1): 24%
% 51Chromium Release from Caki-2 Targets (Caki-2 Targets [6]; E:T 20:1): 41%
% 51Chromium Release from Caki-2 Targets (Caki-2 Targets [6]; E:T 40:1): 52%
blocking of LAK killing of the tumor target CAKI-2, in words (Caki-2 Targets [6]; preincubation of targets and addition to the assay at 250 μg per well): does not block
activity of LAK or Control preparations incubated with the protein alone versus untreated LAK ([7]; 200 μg/ml for 2 h at 40C, no monolayer): identical activity
ability of effectors (LAK or LAK/NS) to kill RAJI after preincubation with the protein ([7]; 200 μg/ml, 23° C): does not affect
ability of effectors (LAK or LAK/NS) to kill K562 after preincubation with the protein [8]: does not affect
inhibition of the ability of LAK to kill CAKI-2 target, in words (Caki-2 Targets [9]): did not inhibit
